Data published in patent publication US20070196886A1 (priority 2004, published 2007).
Read-outs that look alike come from different tables or passages of the source.

Assays:
[1] = biological target: T1, halted transcription elongation complex containing 12 nt of RNA (TEC12) (Escherichia coli, UniProt P0A8T7+P0A8V2); experiment: Transcription experiment starting with halted elongation complex (TEC12); format: biochemical; details: 0, 1, 10, or 100 μM MccJ25; compared with open-complex experiments
T1 construct: made in house
Protocol: TEC12 was prepared by reaction for 5 min at 37° C. with 0.5 mM ApA, and 12.5 μM each of [α-^32P]UTP, ATP, and GTP.

RNAP holoenzyme [2] = biological target: T2, RNAP holoenzyme (Escherichia coli, UniProt P0A8T7+P0A8V2); format: biochemical; details: FIG. 3F
Protocol: Following 15 min at 37° C., 0.5 μl 1 mg/ml heparin was added, and, following a further 2 min at 37° C., 1 μl of 0.25-5 mM (γ-AmNS)UTP (Molecular Probes) was added, and reaction mixtures were transferred to sub-micro fluorometer cuvettes (Starna Cells). Following 2 min at 37° C., RNA synthesis was initiated by addition of 2.5 μl 10 mM ApA, and fluorescence emission intensity was monitored 5 min at 37° C. [excitation wavelength=360 nm and emission wavelength=500 nm; excitation and emission slit widths=4 nm; QuantaMaster QM1 spectrofluorometer (PTI)]. The quantity of UMP incorporated into RNA was determined from the quantity of (γ-AmNS)UTP consumed, which, in turn, was calculated as follows (Schlageck et al., (1979) J. Biol. Chem. 254, 12074-12077): (γ-AmNS)UTPconsumed=[(γ-AmNS)UTP0](Ft−F0)/(12.4×F0) (1) where (γ-AmNS)UTP0 is the quantity of (γ-AmNS) UTP at time 0, F0 is the fluorescence emission intensity at time 0, and Ft is the fluorescence emission intensity at time t. Data were fit to full-competitive, partial-competitive, full-noncompetitive, partial-noncompetitive, full-uncompetitive, partial-uncompetitive, full-mixed, and partial-mixed models of inhibition as in the preceding section.

RNAP holoenzyme [3] = biological target: T2, RNAP holoenzyme; experiment: Electrophoretic mobility shift assays (open-complex formation); format: biochemical; details: MccJ25 at 1, 10, or 100 μM; lacUV5 promoter
Protocol: Following 15 min at 37° C., 0.5 μl 1 mg/ml heparin was added (to disrupt non-specific complexes), and, following a further 2 min at 37° C., reaction mixtures were applied to 5% polyacrylamide slab gels (30:1 acrylamide/bisacrylamide; 6×9×0.1 cm) and electrophoresed in 90 mM Tris-borate (pH 8.0) and 0.2 mM EDTA (20 V/cm; 30 min at 37° C.) and analyzed using a fluorescence scanner (Storm 860; Molecular Dynamics)

[4] = biological target: T3, [Ile931]β′ RNAP holoenzyme (Escherichia coli, UniProt P0A8T7+P0A8V2, T931I); experiment: Transcription assays with RNAP derivative bearing Thr931→Ile substitution in β′; format: biochemical
T3 construct: [Ile931]β′ RNAP core and holoenzyme were prepared from strain 397c; hexahistidine (C); made in house; host or cells: E. coli strain 397c (rpoC^ts397) transformed with a pRL663 derivative
Protocol: (§1) Following 15 min at 37° C., 0.5 μl 1 mg/ml heparin was added, and, following a further 2 min at 37° C., RNA synthesis was initiated by addition of 2 μl 5 mM ApA and 125 μM (or 250 μM, 500 μM, and 1 mM) each of [α-^32P]UTP (0.6 Bq/fmol), ATP, CTP, GTP. Following 5 min at 37° C., reactions were terminated by addition of 10 μl 80% formamide, 10 mM EDTA, 0.04% bromophenol blue, and 0.04% xylene cyanol. Products were heated 10 min at 90° C., resolved by urea-PAGE (Sambrook and Russel, (2001)), and quantified using a storage-phosphor scanner (Storm 860; Molecular Dynamics). Identities of tri- and tetranucleotide abortive products were defined as in Borowiec and Gralla, (1985) J. Mol. Biol. 184, 587-598). Data were fit to full-competitive, partial-competitive, full-noncompetitive, partial-noncompetitive, full-uncompetitive, partial-uncompetitive, full-mixed, and partial-mixed models of inhibition using the Fit-To-Model feature of the SigmaPlot Enzyme Kinetics Module (SPSS).

bacterial RNAP = details: unpublished data
RNAP holoenzyme [5] = biological target: T2, RNAP holoenzyme; format: biochemical; details: for Vmax: FIG. 3E
Protocol: as §1

Microcin J25 [MccJ25]
inhibition of formation of full-length product starting with halted elongation complex [1]: equivalent results | Vmax (RNAP holoenzyme [2]; at 1 μM MccJ25): 5.3±2.8 mol/mol template/min | Vmax (RNAP holoenzyme [2]; at 10 μM MccJ25): 2.4±2.9 mol/mol template/min | effect on formation of open complex (RNAP holoenzyme [3]): no effect | inhibition upon substitution of residue 931 of the RNAP β′ subunit [4]: overcome completely | cross-resistance with rifampicin (bacterial RNAP): do not exhibit cross-resistance with rifampicin | mode of inhibition with respect to NTPs (RNAP holoenzyme [5]): partial competitive | inhibition of formation of abortive products (3 nt and 4 nt RNA species) (RNAP holoenzyme [5]; 100 μM MccJ25, 5 min at 37° C.): 86% | inhibition of formation of the full-length product (26 nt RNA species) (RNAP holoenzyme [5]; 100 μM MccJ25, 5 min at 37° C.): 94% | effect of high NTP concentrations on inhibition (RNAP holoenzyme [5]; NTP 12.5, 25, 50, 100 μM): can overcome inhibition | Vmax (RNAP holoenzyme [5]; at 1 μM MccJ25): 1.9±0.4 mol/mol template/min | Vmax (RNAP holoenzyme [5]; at 10 μM MccJ25): 1.4±0.7 mol/mol template/min
